Reference: the supplement of paper PMC11451515

Test system: NOMO1
Experiment: cell viability relative to DMSO control; higher = less cytotoxic
Conditions: 48 h
Summary of the method: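 Before seeding, each leukemia line was adapted for at least four passages in each medium. NOMO1 or SEM cells (500 cells/well) and P12-Ichikawa cells (1000 cells/well) went into 1536-well plates at 5 μl, then received library compounds in DMSO by pin dosing across 11 threefold concentrations, 47 μM to 0.79 nM. Readout was CellTiter-Glo One luminescence after 48 h at 37°C, and viability is given as a per-plate percentage of DMSO wells, with cell-free wells as background.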

[1] = HPLM + 10% dialyzed FBS, 0.000781 µM
[2] = HPLM + 10% dialyzed FBS, 0.00234 µM
[3] = HPLM + 10% dialyzed FBS, 0.00702 µM
[4] = HPLM + 10% dialyzed FBS, 0.0211 µM
[5] = HPLM + 10% dialyzed FBS, 0.0632 µM
[6] = HPLM + 10% dialyzed FBS, 0.19 µM
[7] = HPLM + 10% dialyzed FBS, 0.569 µM
[8] = HPLM + 10% dialyzed FBS, 1.71 µM
[9] = HPLM + 10% dialyzed FBS, 5.12 µM
[10] = HPLM + 10% dialyzed FBS, 15.4 µM
[11] = HPLM + 10% dialyzed FBS, 46.1 µM
[12] = RPMI 5 mM glucose + 10% FBS, 0.000781 µM
[13] = RPMI 5 mM glucose + 10% FBS, 0.00234 µM
[14] = RPMI 5 mM glucose + 10% FBS, 0.00702 µM
[15] = RPMI 5 mM glucose + 10% FBS, 0.0211 µM
[16] = RPMI 5 mM glucose + 10% FBS, 0.0632 µM
[17] = RPMI 5 mM glucose + 10% FBS, 0.19 µM
[18] = RPMI 5 mM glucose + 10% FBS, 0.569 µM
[19] = RPMI 5 mM glucose + 10% FBS, 1.71 µM
[20] = RPMI 5 mM glucose + 10% FBS, 5.12 µM
[21] = RPMI 5 mM glucose + 10% FBS, 15.4 µM
[22] = RPMI 5 mM glucose + 10% FBS, 46.1 µM
[23] = RPMI 5 mM glucose + 10% dialyzed FBS, 0.000781 µM
[24] = RPMI 5 mM glucose + 10% dialyzed FBS, 0.00234 µM
[25] = RPMI 5 mM glucose + 10% dialyzed FBS, 0.00702 µM
[26] = RPMI 5 mM glucose + 10% dialyzed FBS, 0.0211 µM
[27] = RPMI 5 mM glucose + 10% dialyzed FBS, 0.0632 µM
[28] = RPMI 5 mM glucose + 10% dialyzed FBS, 0.19 µM
[29] = RPMI 5 mM glucose + 10% dialyzed FBS, 0.569 µM
[30] = RPMI 5 mM glucose + 10% dialyzed FBS, 1.71 µM
[31] = RPMI 5 mM glucose + 10% dialyzed FBS, 5.12 µM
[32] = RPMI 5 mM glucose + 10% dialyzed FBS, 15.4 µM
[33] = RPMI 5 mM glucose + 10% dialyzed FBS, 46.1 µM

| SMILES | cell viability [1] | cell viability [2] | cell viability [3] | cell viability [4] | cell viability [5] | cell viability [6] | cell viability [7] | cell viability [8] | cell viability [9] | cell viability [10] | cell viability [11] | cell viability [12] | cell viability [13] | cell viability [14] | cell viability [15] | cell viability [16] | cell viability [17] | cell viability [18] | cell viability [19] | cell viability [20] | cell viability [21] | cell viability [22] | cell viability [23] | cell viability [24] | cell viability [25] | cell viability [26] | cell viability [27] | cell viability [28] | cell viability [29] | cell viability [30] | cell viability [31] | cell viability [32] | cell viability [33] |
| --- | --- | --- | --- | --- | --- | --- | --- | --- | --- | --- | --- | --- | --- | --- | --- | --- | --- | --- | --- | --- | --- | --- | --- | --- | --- | --- | --- | --- | --- | --- | --- | --- | --- |
| NC(=O)[C@@H](CCC(F)(F)F)N(Cc1ccc(-c2ncon2)cc1F)[S+](=O)([O-])c1ccc(Cl)cc1 | 107% | 106% | 113% | 108% | 109% | 105% | 97.5% | 91.7% | 96.3% | 71% | 3.05% | 92.8% | 103% | 91.1% | 90.6% | 97.8% | 96.3% | 78.5% | 73.9% | 84.6% | 77.2% | 61% | 94.4% | 93% | 97.1% | 88.3% | 96.9% | 105% | 87% | 83.2% | 88.5% | 81.6% | 50.2% |
| N[C@@H](Cc1cc(I)c(Oc2cc(I)c(O)c(I)c2)c(I)c1)C(=O)O | 119% | 109% | 105% | 103% | 111% | 109% | 125% | 94.5% | 112% | 104% | 97.4% | 92.9% | 105% | 107% | 100% | 101% | 97% | 108% | 105% | 93.6% | 112% | 84.8% | 109% | 116% | 113% | 113% | 94.1% | 95.5% | 96.9% | 98.9% | 94% | 96.8% | 92.6% |
| O=C(O)CCCc1ccc(N(CCCl)CCCl)cc1 | 111% | 119% | 119% | 143% | 118% | 151% | 109% | 134% | 138% | 123% | 86.4% | 115% | 110% | 134% | 135% | 127% | 132% | 146% | 132% | 141% | 135% | 61.4% | 119% | 125% | 131% | 125% | 130% | 125% | 129% | 108% | 152% | 141% | 63.9% |
| CCc1nc(C(N)=O)c(Nc2ccc(N3CCC(N4CCN(C)CC4)CC3)c(OC)c2)nc1NC1CCOCC1 | – | – | – | – | – | – | – | – | – | – | – | 99.1% | 103% | 109% | 124% | 104% | 112% | 103% | 93.7% | 64.2% | 55.8% | 43.1% | 124% | 112% | 101% | 123% | 147% | 99.9% | 77.9% | 78.7% | 57.5% | 38.1% | 33.3% |
| CC=CC1=C(C(=O)O)N2C(=O)[C@@H](NC(=O)[C@H](N)c3ccc(O)cc3)[C@H]2SC1.O | 80.5% | 102% | 113% | 104% | 120% | 116% | 118% | 60.7% | 33.1% | 31.3% | 23.8% | 93.7% | 109% | 113% | 116% | 112% | 125% | 118% | 28.4% | 22.2% | 18.1% | 15.1% | 106% | 104% | 96% | 104% | 117% | 113% | 109% | 89.6% | 24.8% | 23.6% | 20% |
| COC1=C(CC=C(C)C)C2=C(\C=C/C(=O)O2)C=C1 | 101% | 107% | 125% | 110% | 119% | 114% | 117% | 120% | 102% | 113% | 81.8% | 114% | 117% | 120% | 116% | 104% | 123% | 104% | 108% | 108% | 114% | 97.9% | 116% | 116% | 117% | 105% | 108% | 116% | 120% | 113% | 98.7% | 104% | 85.2% |
| CN1C(=O)C(=C/2N(C(=O)N(C3CC3)C(=O)C2=C1/NC4=CC=C(I)C=C4F)C5=CC=CC(=C5)NC(C)=O)\C | 117% | 134% | 113% | 99.3% | 83.4% | 61.1% | 52.3% | 41.1% | 10.8% | 7.05% | 6.86% | – | – | – | – | – | – | – | – | – | – | – | 117% | 135% | 124% | 92.7% | 81% | 63.8% | 55.1% | 49.6% | 27.6% | 9.59% | 6.9% |
